# Measured values taken from PubChem BioAssay (NCI).
#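 Results reflect a 48-hour exposure of cells in 96-well plates to compound at five concentrations. The concentration for 50% growth inhibition is given as GI50. Definition used: TGI = concentration required for complete inhibition of growth.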
# Tests used:
# Assay in all cases: DTP human tumour cell line panel, 48 h
# CAKI-1 renal = system: CAKI-1 renal
# NCI-H460 lung = system: NCI-H460 lung
# K-562 leukemia = system: K-562 leukemia
# OVCAR-4 ovarian = system: OVCAR-4 ovarian
# U251 CNS = system: U251 CNS
# HOP-92 NSCLC = system: HOP-92 NSCLC
# NCI/ADR-RES ovarian = system: NCI/ADR-RES ovarian
# ACHN renal = system: ACHN renal
# DU-145 prostate = system: DU-145 prostate
# 786-0 renal = system: 786-0 renal
# M14 melanoma = system: M14 melanoma
# SNB-19 CNS = system: SNB-19 CNS
# A498 renal = system: A498 renal
# A549 NSCLC = system: A549 NSCLC
# SK-MEL-28 melanoma = system: SK-MEL-28 melanoma
# SK-MEL-2 melanoma = system: SK-MEL-2 melanoma
# NCI-H522 lung = system: NCI-H522 lung
# KM12 colon = system: KM12 colon
# SNB-75 CNS = system: SNB-75 CNS
# SF-268 CNS = system: SF-268 CNS
# SW-620 colon = system: SW-620 colon
# EKVX NSCLC = system: EKVX NSCLC
# RXF 393 renal = system: RXF 393 renal
# SF-295 CNS = system: SF-295 CNS
# HT29 colon = system: HT29 colon
# OVCAR-3 ovarian = system: OVCAR-3 ovarian
# CCRF-CEM leukemia = system: CCRF-CEM leukemia
# COLO 205 colon = system: COLO 205 colon
# OVCAR-8 ovarian = system: OVCAR-8 ovarian
# UO-31 renal = system: UO-31 renal
# SK-OV-3 ovarian = system: SK-OV-3 ovarian
# TK-10 renal = system: TK-10 renal
# HCT-15 colon = system: HCT-15 colon
# RPMI-8226 leukemia = system: RPMI-8226 leukemia
# BT-549 breast = system: BT-549 breast
# HOP-62 NSCLC = system: HOP-62 NSCLC
# MOLT-4 leukemia = system: MOLT-4 leukemia
# MCF7 breast = system: MCF7 breast
# PC-3 prostate = system: PC-3 prostate
# IGROV1 ovarian = system: IGROV1 ovarian
# OVCAR-5 ovarian = system: OVCAR-5 ovarian
# SN12C renal = system: SN12C renal
# NCI-H226 lung = system: NCI-H226 lung
# HS 578T breast = system: HS 578T breast
# UACC-62 melanoma = system: UACC-62 melanoma
# SF-539 CNS = system: SF-539 CNS
# HL-60(TB) leukemia = system: HL-60(TB) leukemia
# HCC-2998 colon = system: HCC-2998 colon
# MDA-MB-435 = system: MDA-MB-435
# NCI-H23 lung = system: NCI-H23 lung
# T-47D breast = system: T-47D breast
# MALME-3M melanoma = system: MALME-3M melanoma
# SK-MEL-5 melanoma = system: SK-MEL-5 melanoma
# MDA-MB-231 breast = system: MDA-MB-231 breast
# HCT-116 colon = system: HCT-116 colon
# LOX IMVI melanoma = system: LOX IMVI melanoma
# UACC-257 melanoma = system: UACC-257 melanoma
compound,measurement,setting,value
COc1cc2c(cc1OCCCCCN1CCN(c3cc(=O)oc4c(C)c(OC)ccc34)CC1)N=C[C@@H]1CCCN1C2=O,GI50,CAKI-1 renal,83 nM
same,TGI,CAKI-1 renal,537 nM
same,GI50,NCI-H460 lung,19.7 nM
same,TGI,NCI-H460 lung,1710 nM
same,GI50,K-562 leukemia,< 10 nM
same,TGI,K-562 leukemia,316 nM
same,GI50,OVCAR-4 ovarian,< 17.8 nM
same,TGI,OVCAR-4 ovarian,189 nM
same,GI50,U251 CNS,< 10 nM
same,TGI,U251 CNS,585 nM
same,GI50,HOP-92 NSCLC,< 10 nM
same,TGI,HOP-92 NSCLC,< 14.1 nM
same,GI50,NCI/ADR-RES ovarian,1550 nM
same,TGI,NCI/ADR-RES ovarian,8250 nM
same,GI50,ACHN renal,43.4 nM
same,TGI,ACHN renal,256 nM
same,GI50,DU-145 prostate,< 10 nM
same,TGI,DU-145 prostate,5360 nM
same,GI50,786-0 renal,< 10 nM
same,GI50,M14 melanoma,10.1 nM
same,TGI,M14 melanoma,22.5 nM
same,GI50,SNB-19 CNS,< 14.3 nM
same,TGI,SNB-19 CNS,8820 nM
same,GI50,A498 renal,< 12.7 nM
same,TGI,A498 renal,28.9 nM
same,GI50,A549 NSCLC,21.1 nM
same,TGI,A549 NSCLC,15400 nM
same,GI50,SK-MEL-28 melanoma,< 23.5 nM
same,TGI,SK-MEL-28 melanoma,163 nM
same,GI50,SK-MEL-2 melanoma,< 10 nM
same,TGI,SK-MEL-2 melanoma,< 17.5 nM
same,GI50,NCI-H522 lung,< 10 nM
same,TGI,NCI-H522 lung,< 35.2 nM
same,GI50,KM12 colon,< 16.9 nM
same,TGI,KM12 colon,96.5 nM
same,GI50,SNB-75 CNS,< 15.5 nM
same,TGI,SNB-75 CNS,< 28.1 nM
same,GI50,SF-268 CNS,< 10 nM
same,TGI,SF-268 CNS,318 nM
same,GI50,SW-620 colon,< 10.8 nM
same,TGI,SW-620 colon,4260 nM
same,GI50,EKVX NSCLC,174 nM
same,TGI,EKVX NSCLC,4070 nM
same,GI50,RXF 393 renal,< 10 nM
same,TGI,RXF 393 renal,< 12.7 nM
same,GI50,SF-295 CNS,< 13.9 nM
same,TGI,SF-295 CNS,2420 nM
same,GI50,HT29 colon,< 10 nM
same,TGI,HT29 colon,42.8 nM
same,GI50,OVCAR-3 ovarian,< 10 nM
same,TGI,OVCAR-3 ovarian,32.4 nM
same,GI50,CCRF-CEM leukemia,< 10 nM
same,TGI,CCRF-CEM leukemia,106 nM
same,GI50,COLO 205 colon,< 10 nM
same,TGI,COLO 205 colon,84.9 nM
same,GI50,OVCAR-8 ovarian,18 nM
same,TGI,OVCAR-8 ovarian,5150 nM
same,GI50,UO-31 renal,14 nM
same,TGI,UO-31 renal,38.3 nM
same,GI50,SK-OV-3 ovarian,43.5 nM
same,TGI,SK-OV-3 ovarian,12800 nM
same,GI50,TK-10 renal,< 12.9 nM
same,TGI,TK-10 renal,13300 nM
same,GI50,HCT-15 colon,552 nM
same,TGI,HCT-15 colon,4420 nM
same,GI50,RPMI-8226 leukemia,< 10 nM
same,TGI,RPMI-8226 leukemia,< 11.8 nM
same,GI50,BT-549 breast,< 11.9 nM
same,TGI,BT-549 breast,155 nM
same,GI50,HOP-62 NSCLC,< 10.7 nM
same,TGI,HOP-62 NSCLC,30.1 nM
same,GI50,MOLT-4 leukemia,< 10 nM
same,TGI,MOLT-4 leukemia,10.6 nM
same,GI50,MCF7 breast,< 10 nM
same,TGI,MCF7 breast,3430 nM
same,GI50,PC-3 prostate,< 10 nM
same,TGI,PC-3 prostate,408 nM
same,GI50,IGROV1 ovarian,< 10 nM
same,TGI,IGROV1 ovarian,25.1 nM
same,GI50,OVCAR-5 ovarian,< 12.3 nM
same,TGI,OVCAR-5 ovarian,851 nM
same,GI50,SN12C renal,< 10 nM
same,TGI,SN12C renal,69.9 nM
same,GI50,NCI-H226 lung,< 10 nM
same,TGI,NCI-H226 lung,36.8 nM
same,GI50,HS 578T breast,< 19.8 nM
same,TGI,HS 578T breast,791 nM
same,GI50,UACC-62 melanoma,< 10 nM
same,TGI,UACC-62 melanoma,14.7 nM
same,GI50,SF-539 CNS,< 11.2 nM
same,TGI,SF-539 CNS,128 nM
same,GI50,HL-60(TB) leukemia,< 10 nM
same,TGI,HL-60(TB) leukemia,1200 nM
same,GI50,HCC-2998 colon,11.1 nM
same,TGI,HCC-2998 colon,37.2 nM
same,GI50,MDA-MB-435,< 11.2 nM
same,TGI,MDA-MB-435,26.2 nM
same,GI50,NCI-H23 lung,< 12.2 nM
same,TGI,NCI-H23 lung,137 nM
same,GI50,T-47D breast,< 17.4 nM
same,GI50,MALME-3M melanoma,18.2 nM
same,TGI,MALME-3M melanoma,53.1 nM
Cc1ccc(-c2nc3nc(-c4ccc(Cl)cc4)nc(N4CCCNCC4)c3o2)cc1,GI50,CAKI-1 renal,1450 nM
same,TGI,CAKI-1 renal,2880 nM
same,GI50,NCI-H460 lung,1930 nM
same,TGI,NCI-H460 lung,3760 nM
same,GI50,OVCAR-4 ovarian,1840 nM
same,TGI,OVCAR-4 ovarian,3390 nM
same,GI50,U251 CNS,1850 nM
same,TGI,U251 CNS,3550 nM
same,GI50,HOP-92 NSCLC,1360 nM
same,TGI,HOP-92 NSCLC,2910 nM
same,GI50,NCI/ADR-RES ovarian,2020 nM
same,TGI,NCI/ADR-RES ovarian,3950 nM
same,GI50,ACHN renal,1710 nM
same,TGI,ACHN renal,3090 nM
same,GI50,DU-145 prostate,1950 nM
same,TGI,DU-145 prostate,3590 nM
same,GI50,786-0 renal,1860 nM
same,TGI,786-0 renal,3540 nM
same,GI50,M14 melanoma,1750 nM
same,TGI,M14 melanoma,3340 nM
same,GI50,SNB-19 CNS,1700 nM
same,TGI,SNB-19 CNS,3120 nM
same,GI50,A498 renal,1880 nM
same,TGI,A498 renal,3560 nM
same,GI50,A549 NSCLC,1910 nM
same,TGI,A549 NSCLC,3830 nM
same,GI50,SK-MEL-28 melanoma,1730 nM
same,TGI,SK-MEL-28 melanoma,3130 nM
same,GI50,SK-MEL-2 melanoma,2040 nM
same,TGI,SK-MEL-2 melanoma,3940 nM
same,GI50,NCI-H522 lung,1750 nM
same,TGI,NCI-H522 lung,3850 nM
same,GI50,KM12 colon,1930 nM
same,TGI,KM12 colon,3810 nM
same,GI50,SK-MEL-5 melanoma,1820 nM
same,TGI,SK-MEL-5 melanoma,3330 nM
same,GI50,SNB-75 CNS,1200 nM
same,TGI,SNB-75 CNS,2470 nM
same,GI50,SF-268 CNS,1920 nM
same,TGI,SF-268 CNS,3970 nM
same,GI50,SW-620 colon,1700 nM
same,TGI,SW-620 colon,3320 nM
same,GI50,EKVX NSCLC,1750 nM
same,TGI,EKVX NSCLC,3270 nM
same,GI50,MDA-MB-231 breast,1830 nM
same,TGI,MDA-MB-231 breast,3370 nM
same,GI50,RXF 393 renal,1580 nM
same,TGI,RXF 393 renal,3030 nM
same,GI50,SF-295 CNS,1820 nM
same,TGI,SF-295 CNS,3390 nM
same,GI50,HT29 colon,1930 nM
same,TGI,HT29 colon,3940 nM
same,GI50,OVCAR-3 ovarian,1940 nM
same,TGI,OVCAR-3 ovarian,3810 nM
same,GI50,CCRF-CEM leukemia,700 nM
same,TGI,CCRF-CEM leukemia,2910 nM
same,GI50,COLO 205 colon,2080 nM
same,TGI,COLO 205 colon,4260 nM
same,GI50,OVCAR-8 ovarian,2150 nM
same,TGI,OVCAR-8 ovarian,4770 nM
same,GI50,UO-31 renal,1300 nM
same,TGI,UO-31 renal,2620 nM
same,GI50,SK-OV-3 ovarian,1750 nM
same,TGI,SK-OV-3 ovarian,3290 nM
same,GI50,TK-10 renal,1780 nM
same,TGI,TK-10 renal,3330 nM
same,GI50,HCT-15 colon,1570 nM
same,TGI,HCT-15 colon,3080 nM
same,GI50,HCT-116 colon,1530 nM
same,TGI,HCT-116 colon,2940 nM
same,GI50,RPMI-8226 leukemia,2110 nM
same,TGI,RPMI-8226 leukemia,4740 nM
same,GI50,BT-549 breast,1900 nM
same,TGI,BT-549 breast,3610 nM
same,GI50,HOP-62 NSCLC,1760 nM
same,TGI,HOP-62 NSCLC,3640 nM
same,GI50,MOLT-4 leukemia,1910 nM
same,TGI,MOLT-4 leukemia,3720 nM
same,GI50,MCF7 breast,1700 nM
same,TGI,MCF7 breast,3390 nM
same,GI50,PC-3 prostate,1600 nM
same,TGI,PC-3 prostate,3140 nM
same,GI50,IGROV1 ovarian,1650 nM
same,TGI,IGROV1 ovarian,3150 nM
same,GI50,OVCAR-5 ovarian,1530 nM
same,TGI,OVCAR-5 ovarian,2870 nM
same,GI50,SN12C renal,1660 nM
same,TGI,SN12C renal,3150 nM
same,GI50,NCI-H226 lung,1780 nM
same,TGI,NCI-H226 lung,3870 nM
same,GI50,HS 578T breast,1930 nM
same,TGI,HS 578T breast,4170 nM
same,GI50,UACC-62 melanoma,1740 nM
same,TGI,UACC-62 melanoma,3240 nM
same,GI50,SF-539 CNS,1710 nM
same,TGI,SF-539 CNS,3120 nM
same,GI50,HL-60(TB) leukemia,1400 nM
same,TGI,HL-60(TB) leukemia,3250 nM
same,GI50,LOX IMVI melanoma,1630 nM
same,TGI,LOX IMVI melanoma,3150 nM
same,GI50,HCC-2998 colon,1890 nM
same,TGI,HCC-2998 colon,3540 nM
same,GI50,MDA-MB-435,1810 nM
same,TGI,MDA-MB-435,3250 nM
same,GI50,NCI-H23 lung,1830 nM
same,TGI,NCI-H23 lung,3410 nM
same,GI50,T-47D breast,1940 nM
same,TGI,T-47D breast,4140 nM
same,GI50,UACC-257 melanoma,1910 nM
same,TGI,UACC-257 melanoma,3650 nM
same,GI50,MALME-3M melanoma,1700 nM
same,TGI,MALME-3M melanoma,3170 nM
